Measurements published in patent publication EP4752152A1, “STEROID COMPOUND, AND PREPARATION METHOD THEREFOR AND USE THEREOF” (Cholesgen (Shanghai) Co.Ltd., priority 2023, dated 2025).

Tested on: SREBP pathway
Assay: SREBP luciferase reporter gene system (SRE-luciferase assay)
Assay type: cell-based, human
Conditions: Huh-7/SRE-luc cells, sterol-deficient medium, 0.01-10 µM
How it was run: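 Huh-7 cells stably carrying LDLR promoter-luciferase plus GFP were treated 16 h in sterol-deficient medium (5% lipoprotein-deficient serum, 2 µM lovastatin, 10 µM mevalonic acid) at 0.01–10 µM. Luciferase/GFP ratio measured as pathway activity; inhibition versus DMSO fitted to a four-parameter model for IC50.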

SMILES	IC50 (16 hours) [µM]	IC50 (Homo sapiens, Huh-7, 16 h) [µM]
COc1cncc(F)c1C(O)CCC[C@@H](C)[C@H]1CC[C@H]2[C@H]3[C@H](CC[C@]12C)[C@@]1(C)CC[C@H](O)[C@H](O)[C@@H]1CC3(F)F (single isomer, unassigned) [Compound 252, (1R,3aS,3bS,5aR,6R,7S,9aR,9bS,11aR)-4,4-difluoro-1-[(2R,6R)-6-(3-fluoro-5-methoxypyridin-4-yl)-6-hydroxyhexan-2-yl]-9a,11a-dimethylhexadecahydro-1H-cyclopenta[1,2-a]phenanthrene-6,7-diol or (1R,3aS,3bS,5aR,6R,7S,9aR,9bS,11aR)-4,4-difluoro-1-[(2R,6S)-6-(3-fluoro-5-methoxypyridin-4-yl)-6-hydroxyhexan-2-yl]-9a,11a-dimethylhexadecahydro-1H-cyclopenta[1,2-a]phenanthrene-6,7-diol]	0.031	
C[C@H](CCCC(O)c1cccc2cn[nH]c12)[C@H]1CC[C@H]2[C@H]3[C@H](CC[C@]12C)[C@@]1(C)CC[C@H](O)[C@H](O)[C@@H]1CC3(F)F (single isomer, unassigned) [Compound 268, (1R,3aS,3bS,5aR,6R,7S,9aR,9bS,11aR)-4,4-difluoro-1-[(2R,6S)-6-hydroxy-6-(1H-indazol-7-yl)hexan-2-yl]-9a,11a-dimethylhexadecahydro-1H-cyclopenta[1,2-a]phenanthrene-6,7-diol or (1R,3aS,3bS,5aR,6R,7S,9aR,9bS,11aR)-4,4-difluoro-1-[(2R,6R)-6-hydroxy-6-(1H-indazol-7-yl)hexan-2-yl]-9a,11a-dimethylhexadecahydro-1H-cyclopenta[1,2-a]phenanthrene-6,7-diol]	0.141	
COc1nc(F)ccc1[C@@H](O)CC[C@@H](C)[C@H]1CC[C@H]2C3=C(F)C[C@H]4[C@@H](O)[C@@H](O)CC[C@]4(C)[C@H]3CC[C@]12C [Compound 339, (1R,3aR,5aR,6R,7S,9aR,9bR,11aR)-4-fluoro-1-[(2R,5S)-5-(6-fluoro-2-methoxypyridin-3-yl)-5-hydroxypentan-2-yl]-9a,11a-dimethyl-2,3,3a,5,5a,6,7,8,9,9a,9b,10,11,11a-tetradecahydro-1H-cyclopenta[1,2-a]phenanthrene-6,7-diol]		0.143
C[C@H](CCCC(O)c1ccc(F)nc1F)[C@H]1CC[C@H]2C3=C(F)C[C@H]4[C@@H](O)[C@@H](O)CC[C@]4(C)[C@H]3CC[C@]12C (stereo partly drawn) [Compound 147, (1R,3aR,5aR,6R,7S,9aR,9bR,11aR)-1-[(2R)-6-(2,6-difluoropyridin-3-yl)-6-hydroxyhexan-2-yl]-4-fluoro-9a,11a-dimethyl-2,3,3a,5,5a,6,7,8,9,9a,9b,10,11,11a-tetradecahydro-1H-cyclopenta[1,2-a]phenanthrene-6,7-diol]		0.19
C[C@H](CCCC(O)c1cccc2c1nnn2C)[C@H]1CC[C@H]2[C@H]3[C@H](CC[C@]12C)[C@@]1(C)CC[C@H](O)[C@H](O)[C@@H]1CC3(F)F (single isomer, unassigned) [Compound 290, (1R,3aS,3bS,5aR,6R,7S,9aR,9bS,11aR)-4,4-difluoro-1-[(2R,6S)-6-hydroxy-6-(1-methylbenzo[d][1,2,3]triazol-4-yl)hexan-2-yl]-9a,11a-dimethylhexadecahydro-1H-cyclopenta[1,2-a]phenanthrene-6,7-diol or (1R,3aS,3bS,5aR,6R,7S,9aR,9bS,11aR)-4,4-difluoro-1-[(2R,6R)-6-hydroxy-6-(1-methylbenzo[d][1,2,3]triazol-4-yl)hexan-2-yl]-9a,11a-dimethylhexadecahydro-1H-cyclopenta[1,2-a]phenanthrene-6,7-diol]		0.137
C[C@H](CCC[C@H](O)c1ccccn1)[C@H]1CC[C@H]2[C@H]3[C@H](CC[C@]12C)[C@@]1(C)CC[C@H](O)[C@H](O)[C@@H]1CC3(F)F [Compound 91, (1R,3aS,3bS,5aR,6R,7S,9aR,9bS,11aR)-4,4-difluoro-1-[(2R,6S)-6-hydroxy-6-(pyridin-2-yl)hexan-2-yl]-9a,11a-dimethylhexadecahydro-1H-cyclopenta[1,2-a]phenanthrene-6,7-diol]		0.378
COc1cc(OC)c([C@H](O)CCC[C@@H](C)[C@H]2CC[C@H]3[C@H]4[C@H](CC[C@]23C)[C@@]2(C)CC[C@H](O)[C@H](O)[C@@H]2CC4(F)F)c(F)n1 (single isomer, unassigned) [Compound 235]		0.115
C[C@H](CCC1CC(=O)C1)[C@H]1CC[C@H]2[C@@H]3CC[C@H]4C[C@@H](O)CC[C@]4(C)[C@H]3CC[C@]12C [Compound 129, 3-[(3R)-3-[(1R,3aS,3bR,5aS,7S,9aS,9bS,11aR)-7-hydroxy-9a,11a-dimethylhexadecahydro-1H-cyclopenta[1,2-a]phenanthren-1-yl]butyl]cyclobutan-1-one]		0.32
C[C@H](CCC[C@@H](O)c1n[nH]c2ccccc12)[C@H]1CC[C@H]2[C@H]3[C@H](CC[C@]12C)[C@@]1(C)CC[C@H](O)[C@H](O)[C@@H]1CC3(F)F (stereo in doubt) [Compound 320, (1R,3aS,3bS,5aR,6R,7S,9aR,9bS,11aR)-4,4-difluoro-1-[(2R,6R)-6-hydroxy-6-(1H-indazol-3-yl)hexan-2-yl]-9a,11a-dimethylhexadecahydro-1H-cyclopenta[1,2-a]phenanthrene-6,7-diol]		0.207
C[C@H](CCCC(O)c1c(F)cccc1F)[C@H]1CC[C@H]2[C@H]3[C@H](CC[C@]12C)[C@@]1(C)CC[C@H](O)[C@H](O)[C@@H]1CC3(F)F (stereo partly drawn) [Compound 161, (1R,3aS,3bS,5aR,6R,7 S,9aR,9bS,11aR)-1-[(2R)-6-(2,6-Difluorophenyl)-6-hydroxyhexan-2-yl]-4,4-difluoro-9a,11a-dimethylhexadecahyd ro-1H-cyclopenta[1,2-a]phenanthrene-6,7-diol]		0.1
COc1ccc(F)c(C(O)CCC[C@@H](C)[C@H]2CC[C@H]3[C@H]4[C@H](CC[C@]23C)[C@@]2(C)CC[C@H](O)[C@H](O)[C@@H]2CC4(F)F)c1 (single isomer, unassigned) [Compound 167, (1R,3aS,3bS,5aR,6R,7S,9aR,9bS,11aR)-4,4-difluoro-1-[(2R,6R)-6-(2-fluoro-5-methoxyphenyl)-6-hydroxyhexan-2-yl]-9a,11a-dimethylhexadecahydro-1H-cyclopenta[1,2-a]phenanthrene-6,7-diol or (1R,3aS,3bS,5aR,5aR,6R,7S,9aR,9bS,11aR) -4,4-difluoro-1-[(2R,6S)-6-(2-fluoro-5-methoxyphenyl)-6-hydroxyhexan-2-yl]-9a,11a-dimethylhexadecahydro-1H-cyclopenta[1,2-a]phenanthrene-6,7-diol]	0.88	
C[C@H](CCN(C)C(=O)c1ccccc1F)[C@H]1CC[C@H]2[C@@H]3CC[C@@]4(C)[C@@H](O)[C@@H](O)CC[C@]4(C)[C@H]3CC[C@]12C [Compound 15B, 2-fluoro-N-[(3R)-3-[(1R,3aS,3bS,5aR,6R,7S,9aR,9bS,11aR)-6,7-dihydroxy-5a,9a,11a-trimethylhexadecahydro-1H-cyclopenta[1,2-a]phenanthren-1-yl]butyl]-N-methylbenzamide]	0.32	
C[C@H](CCCC(O)c1cnc2c(c1)OC(F)(F)O2)[C@H]1CC[C@H]2[C@H]3[C@H](CC[C@]12C)[C@@]1(C)CC[C@H](O)[C@H](O)[C@@H]1CC3(F)F (single isomer, unassigned) [Compound 285]		0.253
C[C@H](CCCC(O)c1cccnc1F)[C@H]1CC[C@H]2[C@H]3[C@H](CC[C@]12C)[C@@]1(C)CC[C@H](O)[C@H](O)[C@@H]1CC3(F)F (stereo partly drawn) [Compound 80, (1R,3aS,3bS,5aR,6R,7S,9aR,9bS,11aR)-4,4-difluoro-1-[(2R)-6-(2-fluoropyridin-3-yl)-6-hydroxyhexan-2-yl]-9a,11a-dimethylhexadecahydro-1H-cyclopenta[1,2-a]phenanthrene-6,7-diol]		0.514
COc1cccc(C(O)CCC[C@@H](C)[C@H]2CC[C@H]3[C@@H]4CC[C@H]5[C@@H](O)[C@@H](O)CC[C@]5(C)[C@H]4CC[C@]23C)c1 (stereo partly drawn) [Compound 5, 24-[hydroxy(3-methoxyphenyl)methyl]-5α-cholane-3β,4β-diol]		0.13
C[C@H](CCCC(O)c1ccncc1)[C@H]1CC[C@H]2[C@H]3[C@H](CC[C@]12C)[C@@]1(C)CC[C@H](O)[C@H](O)[C@@H]1CC3(F)F (stereo partly drawn) [Compound 76, (1R,3aS,3bS,5aR,6R,7S,9aR,9bS,11aR)-4,4-difluoro-1-[(2R)-6-hydroxy-6-(pyridin-4-yl)hexan-2-yl]-9a,11a-dimethylhexadecahydro-1H-cyclopenta[1,2-a]phenanthrene-6,7-diol]		0.9
COc1ccc(C(O)CCC[C@@H](C)[C@H]2CC[C@H]3[C@H]4[C@H](CC[C@]23C)[C@@]2(C)CC[C@H](O)[C@H](O)[C@@H]2CC4(F)F)c(F)n1 (single isomer, unassigned) [Compound 242, (1R,3aS,3bS,5aR,6R,7S,9aR,9bS,11aR)-4,4-difluoro-1-[(2R,6S)-6-(2-fluoro-6-methoxypyridin-3-yl)-6-hydroxyhexan-2-yl]-9a,11a-dimethylhexadecahydro-1H-cyclopenta[1,2-a]phenanthrene-6,7-diol or (1R,3aS,3bS,5aR,6R,7S,9aR,9bS,11aR)-4,4-difluoro-1-[(2R,6R)-6-(2-fluoro-6-methoxypyridin-3-yl)-6-hydroxyhexan-2-yl]-9a,11a-dimethylhexadecahydro-1H-cyclopenta[1,2-a]phenanthrene-6,7-diol]	0.205	
C[C@H](CCC[C@@H](O)c1cc2ccccc2o1)[C@H]1CC[C@H]2[C@H]3[C@H](CC[C@]12C)[C@@]1(C)CC[C@H](O)[C@H](O)[C@@H]1CC3(F)F (stereo in doubt) [Compound 317, (1R,3aS,3bS,5aR,6R,7S,9aR,9bS,11aR)-1-[(2R,6R)-6-(1-benzofuran-2-yl)-6-hydroxyhexan-2-yl]-4,4-difluoro-9a,11a-dimethylhexadecahydro-1H-cyclopenta[1,2-a]phenanthrene-6,7-diol]	0.155	
COc1cc(F)nc(OC)c1[C@H](O)CCC[C@@H](C)[C@H]1CC[C@H]2[C@H]3[C@H](CC[C@]12C)[C@@]1(C)CC[C@H](O)[C@H](O)[C@@H]1CC3(F)F (single isomer, unassigned) [Compound 264]		0.189
